Entries after “also recorded” stand apart in the source; their conditions may differ. Ends that are not written are not given here.
Tested on: microorganisms
Assay: Peptides having multiple activities (targeting/binding, antimicrobial, growth or phenotype altering)
Conditions: not given
Excerpt: In certain embodiments, peptides described herein can have multiple activities. Thus for example, a peptide can have both binding/targeting activity and antimicrobial activity. Such peptides can be used, e.g., in a chimeric construct, for any or all of these properties. Thus, for example, a peptide designated “B” in Table 8 can be used as a targeting peptide. If it is also designated G or M it can also be used for antimicrobial activity.

| Substance | Activities |
| --- | --- |
| PDAPRTCYHKPILAALSRIVVTDR [PF-524] | G B M |
| FQKPFTGEEVEDFQDDDEIPTII [PF-437] | G M |
| LGLTAGVAYAAQPTNQPTNQPTNQPTNQPTNQPTNQPRW-NH2 [PF-520] | G B M |
| VMQSLYVKPPLILVTKLAQQN [PF-511] | G B M |
| VYSFLYVLVIVRKLLSMKKRIERL [PF-499] | B M |
| PF-C145: peptide having multiple activities (YGKESDP; Peptide with targeting and/or antimicrobial activity) | G B |
| SFMPEIQKNTIPTQMK [PF-512] | G B M |
| PF-C291: peptide having multiple activities (HPFLTGTGCPLFLIFRLFFVKAYFSFTVF; Peptide with targeting and/or antimicrobial activity) | G B |

Tested on: B. subtilis
Assay: MIC (broth microdilution)
Assay type: cell-based, Bacillus subtilis
Conditions: not given
Method: (§1) Typically, the in vitro antimicrobial activity of antimicrobial agents is tested using standard NCCLS bacterial inhibition assays, or MIC tests (see, National Committee on Clinical Laboratory Standards “Performance Standards for Antimicrobial Susceptibility Testing,” NCCLS Document M100-S5 Vol. 14, No. 16, December 1994; “Methods for dilution antimicrobial susceptibility test for bacteria that grow aerobically-Third Edition,” Approved Standard M7-A3, National Committee for Clinical Standards, Villanova, Pa.).
(§2) Briefly, ˜1×10^5 cfu/mL bacteria were diluted in TH (S. mutans), or Mueller-Hinton (MH) broth (all other organisms) and distributed to 96-well plates. Serially-diluted (2-fold) peptides were then added and the plates incubated at 37° C. for 18-24 h. […] All experiments were conducted 10 times.

| Substance | MIC |
| --- | --- |
| VYSFLYVLVIVRKLLSMKKRIERL [PF-499] | B. subtilis, 50 μM |

Tested on: S. pneumoniae
Assay: Kill or inhibit growth/proliferation; morphology, biofilm and growth disruption (Tables 5, 6); further: test concentration or dose not given here
Assay type: cell-based, Streptococcus pneumoniae
Set-up: key: A: Peptide aggregates; B: Less hyphal formation; Clumps; Diffuse clumps and small polyps; F: Diffuse growth; H: Thin; I: Growth inhibition; Microcolony formation; Rippled; Small polyps; Thick; W: Halo formation on top, microlonies on bottom
Conditions: not given

| Substance | Organism, effect |
| --- | --- |
| PDAPRTCYHKPILAALSRIVVTDR [PF-524] | S. pneumoniae (M) |
| FQKPFTGEEVEDFQDDDEIPTII [PF-437] | S. pneumoniae (I) |
| LGLTAGVAYAAQPTNQPTNQPTNQPTNQPTNQPTNQPRW-NH2 [PF-520] | S. pneumoniae (M) |
| VMQSLYVKPPLILVTKLAQQN [PF-511] | S. pneumoniae (H) |
| SFMPEIQKNTIPTQMK [PF-512] | S. pneumoniae (H) |

Tested on: S. pneumoniae
Assay: MIC (broth microdilution)
Assay type: cell-based, Streptococcus pneumoniae
Conditions: not given
Method: as §1, §2

| Substance | MIC |
| --- | --- |
| PDAPRTCYHKPILAALSRIVVTDR [PF-524] | S. pneumoniae, 50 μM |
| FQKPFTGEEVEDFQDDDEIPTII [PF-437] | S. pneumoniae, 50 μM |
| LGLTAGVAYAAQPTNQPTNQPTNQPTNQPTNQPTNQPRW-NH2 [PF-520] | S. pneumoniae, 50 μM |
| VMQSLYVKPPLILVTKLAQQN [PF-511] | S. pneumoniae, 50 μM |
| SFMPEIQKNTIPTQMK [PF-512] | S. pneumoniae, 50 μM |

Tested on: E. faecalis
Assay: Kill or inhibit growth/proliferation; morphology, biofilm and growth disruption (Tables 5, 6); further: test concentration or dose not given here
Assay type: cell-based, Enterococcus faecalis
Set-up: key: A: Peptide aggregates; B: Less hyphal formation; Clumps; Diffuse clumps and small polyps; F: Diffuse growth; H: Thin; I: Growth inhibition; Microcolony formation; Rippled; Small polyps; Thick; W: Halo formation on top, microlonies on bottom
Conditions: not given

| Substance | Organism, effect |
| --- | --- |
| PDAPRTCYHKPILAALSRIVVTDR [PF-524] | E. faecalis (C) |

Tested on: F. nucleatum
Assay: as above
Assay type: cell-based, Fusobacterium nucleatum
Set-up: key: A: Peptide aggregates; B: Less hyphal formation; Clumps; Diffuse clumps and small polyps; F: Diffuse growth; H: Thin; I: Growth inhibition; Microcolony formation; Rippled; Small polyps; Thick; W: Halo formation on top, microlonies on bottom
Conditions: not given

| Substance | Organism, effect (morphology, biofilm and growth disruption) |
| --- | --- |
| PF-C145: peptide having multiple activities (YGKESDP; Peptide with targeting and/or antimicrobial activity) | F. nucleatum (C) |
| PF-C291: peptide having multiple activities (HPFLTGTGCPLFLIFRLFFVKAYFSFTVF; Peptide with targeting and/or antimicrobial activity) | F. nucleatum (T) |

Tested on: S. mutans
Assay: as above
Assay type: cell-based, Streptococcus mutans
Set-up: key: A: Peptide aggregates; B: Less hyphal formation; Clumps; Diffuse clumps and small polyps; F: Diffuse growth; H: Thin; I: Growth inhibition; Microcolony formation; Rippled; Small polyps; Thick; W: Halo formation on top, microlonies on bottom
Conditions: not given

| Substance | Organism, effect (morphology, biofilm and growth disruption) |
| --- | --- |
| PF-C145: peptide having multiple activities (YGKESDP; Peptide with targeting and/or antimicrobial activity) | S. mutans (I) |
| PF-C291: peptide having multiple activities (HPFLTGTGCPLFLIFRLFFVKAYFSFTVF; Peptide with targeting and/or antimicrobial activity) | S. mutans (F) |

Tested on: E. coli
Assay: as above
Assay type: cell-based, Escherichia coli
Set-up: key: A: Peptide aggregates; B: Less hyphal formation; Clumps; Diffuse clumps and small polyps; F: Diffuse growth; H: Thin; I: Growth inhibition; Microcolony formation; Rippled; Small polyps; Thick; W: Halo formation on top, microlonies on bottom
Conditions: not given

| Substance | Organism, effect |
| --- | --- |
| PDAPRTCYHKPILAALSRIVVTDR [PF-524] | E. coli (M) |

Tested on: MRSA
Assay: as above
Assay type: cell-based, Methicillin-resistant Staphylococcus aureus
Set-up: key: A: Peptide aggregates; B: Less hyphal formation; Clumps; Diffuse clumps and small polyps; F: Diffuse growth; H: Thin; I: Growth inhibition; Microcolony formation; Rippled; Small polyps; Thick; W: Halo formation on top, microlonies on bottom
Conditions: not given

| Substance | Organism, effect |
| --- | --- |
| PDAPRTCYHKPILAALSRIVVTDR [PF-524] | MRSA (C) |

Tested on: microorganisms (e.g., bacteria, yeasts, fungi)
Assay: Targeting peptide binding to target microorganisms (Table 3)
Conditions: microorganism(s) the targeting peptide binds; peptide binding conducted in aqueous buffers varied by peptide solubility, preferably 1x PBS

| Substance | Target(s) |
| --- | --- |
| PDAPRTCYHKPILAALSRIVVTDR [PF-524] | S. epidermidis and E. coli and P. aeruginosa and C. albicans and MRSA and S. pneumoniae and E. faecalis and C. jeikeium |
| VMQSLYVKPPLILVTKLAQQN [PF-511] | E. coli; also recorded: P. aeruginosa; also recorded: S. pneumoniae; also recorded: C. jeikeium |
| VYSFLYVLVIVRKLLSMKKRIERL [PF-499] | S. mutans; also recorded: E. coli |
| SFMPEIQKNTIPTQMK [PF-512] | S. pneumoniae; also recorded: C. jeikeium |

Same assay, conditions: peptide binding in aqueous buffers varied by peptide solubility; preferably 1x PBS

| Substance | Target(s) (microorganisms bound by the targeting peptide) |
| --- | --- |
| PF-C145: peptide having multiple activities (YGKESDP; Peptide with targeting and/or antimicrobial activity) | A. naeslundii; also recorded: F. nucleatum; also recorded: P. gingivalis; also recorded: S. mutans; also recorded: T. denticola |
| PF-C291: peptide having multiple activities (HPFLTGTGCPLFLIFRLFFVKAYFSFTVF; Peptide with targeting and/or antimicrobial activity) | A. naeslundii; also recorded: F. nucleatum; also recorded: P. gingivalis; also recorded: S. mutans |
